Results as given in the supplement of paper PMC10627819.

Key:
B. subtilis 168 [1] = experiment: fitness (endpoint OD595 vs no drug) (fraction); higher = more growth
Method in brief: (§1)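 Background-subtracted growth curves were the basis for fitness, taken as the optical density at entry into stationary phase over the robust mean of no-drug control wells. A cap of 1 was applied. The curves came from OD595 readings every 30 min for 14 h at 37 °C, in 384-well plates seeded at OD595 0.01 with 30 µl, or 55 µl for S. pneumoniae.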

S. pneumoniae D39V [2] = experiment: as above
Method in brief: as §1

S. aureus DSM 20231 [3] = experiment: as above
Method in brief: as §1

S. aureus Newman [4] = experiment: as above
Method in brief: as §1

B. subtilis 168 [5] = experiment: Bliss interaction score (quartile over a dose matrix) (fitness difference); higher = more antagonism (negative = synergy)
Method in brief: (§2)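 Fitness was defined as normalised growth: OD595 at the start of stationary phase divided by the plate's robust no-drug mean and capped at 1. Single-drug fitness was inferred from combination measurements. The Bliss score is observed fitness minus the product of the single-drug values, summarised by quartiles across technical, biological and donor/recipient replicates.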

S. pneumoniae D39V [6] = experiment: as above
Method in brief: as §2

S. aureus DSM 20231 [7] = experiment: as above
Method in brief: as §2

S. aureus Newman [8] = experiment: as above
Method in brief: as §2
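Wherever Bliss interaction score (quartile over a dose matrix) is given: first quartile when negative (synergy) and third quartile when positive (antagonism).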

C[C@@H]1O[C@@H]1P(=O)(O)O [Fosfomycin] + COc1c(N2C[C@@H]3CCCN[C@@H]3C2)c(F)cc2c(=O)c(C(=O)O)cn(C3CC3)c12 [Moxifloxacin]
Details | fitness
B. subtilis 168 [1], first compound 1.562 µg/mL, partner 0.0312 µg/mL | 0.0743
B. subtilis 168 [1], first compound 1.562 µg/mL, partner 0.0625 µg/mL | 0.0627
B. subtilis 168 [1], first compound 1.562 µg/mL, partner 0.125 µg/mL | 0.0277
B. subtilis 168 [1], first compound 1.562 µg/mL, partner 2 µg/mL | 0.0303
B. subtilis 168 [1], first compound 1.562 µg/mL, partner 4 µg/mL | 0.0293
B. subtilis 168 [1], first compound 1.562 µg/mL, partner 8 µg/mL | 0.0076
B. subtilis 168 [1], first compound 3.124 µg/mL, partner 0.0312 µg/mL | 0.0504
B. subtilis 168 [1], first compound 3.124 µg/mL, partner 0.0625 µg/mL | 0.0309
B. subtilis 168 [1], first compound 3.124 µg/mL, partner 0.125 µg/mL | 0.0339
B. subtilis 168 [1], first compound 3.124 µg/mL, partner 2 µg/mL | 0.033
B. subtilis 168 [1], first compound 3.124 µg/mL, partner 4 µg/mL | 0.0332
B. subtilis 168 [1], first compound 3.124 µg/mL, partner 8 µg/mL | 0.0176
B. subtilis 168 [1], first compound 6.248 µg/mL, partner 0.0312 µg/mL | 0.0469
B. subtilis 168 [1], first compound 6.248 µg/mL, partner 0.0625 µg/mL | 0.0265
B. subtilis 168 [1], first compound 6.248 µg/mL, partner 0.125 µg/mL | 0.0207
B. subtilis 168 [1], first compound 6.248 µg/mL, partner 2 µg/mL | 0.016
B. subtilis 168 [1], first compound 6.248 µg/mL, partner 4 µg/mL | 0.0083
B. subtilis 168 [1], first compound 6.248 µg/mL, partner 8 µg/mL | 0.0062
S. aureus DSM 20231 [3], first compound 0.781 µg/mL, partner 0.0075 µg/mL | 0.629
S. aureus DSM 20231 [3], first compound 0.781 µg/mL, partner 0.015 µg/mL | 0.609
S. aureus DSM 20231 [3], first compound 0.781 µg/mL, partner 0.03 µg/mL | 0.606
S. aureus DSM 20231 [3], first compound 1.562 µg/mL, partner 0.0075 µg/mL | 0.592
S. aureus DSM 20231 [3], first compound 1.562 µg/mL, partner 0.015 µg/mL | 0.564
S. aureus DSM 20231 [3], first compound 1.562 µg/mL, partner 0.03 µg/mL | 0.538
S. aureus DSM 20231 [3], first compound 3.124 µg/mL, partner 0.0075 µg/mL | 0.493
S. aureus DSM 20231 [3], first compound 3.124 µg/mL, partner 0.015 µg/mL | 0.455
S. aureus DSM 20231 [3], first compound 3.124 µg/mL, partner 0.03 µg/mL | 0.299
S. aureus Newman [4], first compound 0.781 µg/mL, partner 0.0075 µg/mL | 0.587
S. aureus Newman [4], first compound 0.781 µg/mL, partner 0.015 µg/mL | 0.509
S. aureus Newman [4], first compound 0.781 µg/mL, partner 0.03 µg/mL | 0.0675
S. aureus Newman [4], first compound 1.562 µg/mL, partner 0.0075 µg/mL | 0.413
S. aureus Newman [4], first compound 1.562 µg/mL, partner 0.015 µg/mL | 0.358
S. aureus Newman [4], first compound 1.562 µg/mL, partner 0.03 µg/mL | 0.0359
S. aureus Newman [4], first compound 3.124 µg/mL, partner 0.0075 µg/mL | 0.0916
S. aureus Newman [4], first compound 3.124 µg/mL, partner 0.015 µg/mL | 0.0267
S. aureus Newman [4], first compound 3.124 µg/mL, partner 0.03 µg/mL | 0.015
S. pneumoniae D39V [2], first compound 1.25 µg/mL, partner 0.005 µg/mL | 0.985
S. pneumoniae D39V [2], first compound 1.25 µg/mL, partner 0.01 µg/mL | 0.988
S. pneumoniae D39V [2], first compound 1.25 µg/mL, partner 0.02 µg/mL | 0.924
S. pneumoniae D39V [2], first compound 1.25 µg/mL, partner 0.0312 µg/mL | 0.139
S. pneumoniae D39V [2], first compound 1.25 µg/mL, partner 0.0625 µg/mL | 0.0679
S. pneumoniae D39V [2], first compound 1.25 µg/mL, partner 0.125 µg/mL | 0.0548
S. pneumoniae D39V [2], first compound 2.5 µg/mL, partner 0.005 µg/mL | 0.93
S. pneumoniae D39V [2], first compound 2.5 µg/mL, partner 0.01 µg/mL | 0.983
S. pneumoniae D39V [2], first compound 2.5 µg/mL, partner 0.02 µg/mL | 0.903
S. pneumoniae D39V [2], first compound 2.5 µg/mL, partner 0.0312 µg/mL | 0.12
S. pneumoniae D39V [2], first compound 2.5 µg/mL, partner 0.0625 µg/mL | 0.0706
S. pneumoniae D39V [2], first compound 2.5 µg/mL, partner 0.125 µg/mL | 0.0382
S. pneumoniae D39V [2], first compound 5 µg/mL, partner 0.005 µg/mL | 0.808
S. pneumoniae D39V [2], first compound 5 µg/mL, partner 0.01 µg/mL | 0.88
S. pneumoniae D39V [2], first compound 5 µg/mL, partner 0.02 µg/mL | 0.855
S. pneumoniae D39V [2], first compound 5 µg/mL, partner 0.0312 µg/mL | 0.106
S. pneumoniae D39V [2], first compound 5 µg/mL, partner 0.0625 µg/mL | 0.0921
S. pneumoniae D39V [2], first compound 5 µg/mL, partner 0.125 µg/mL | 0.0302

fitness, S. aureus DSM 20231 [3], one replicate
Details | first compound 0.781 µg/mL | first compound 1.562 µg/mL | first compound 3.124 µg/mL
partner 0.06 µg/mL | 0.655 | 0.585 | 0.465
partner 0.12 µg/mL | 0.46 | 0.403 | 0.247

Details | Bliss interaction score
B. subtilis 168 [5] | -0.0148
S. aureus DSM 20231 [7] | 0.0661
S. aureus Newman [8] | -0.0851
S. pneumoniae D39V [6] | 0.0534

C[C@@H]1O[C@@H]1P(=O)(O)O [Fosfomycin] + COc1ccc(C[C@H](N)C(=O)N[C@H]2[C@@H](O)[C@H](n3cnc4c(N(C)C)ncnc43)O[C@@H]2CO)cc1 [Puromycin]
fitness
Details | partner 0.39 µg/mL | partner 0.78 µg/mL | partner 1 µg/mL | partner 1.56 µg/mL | partner 2 µg/mL
B. subtilis 168 [1], first compound 1.562 µg/mL | 0.694 | 0.712 | – | 0.672 | –
B. subtilis 168 [1], first compound 3.124 µg/mL | 0.65 | 0.562 | – | 0.583 | –
B. subtilis 168 [1], first compound 6.248 µg/mL | 0.407 | 0.354 | – | 0.378 | –
S. aureus DSM 20231 [3], first compound 0.781 µg/mL | 0.799 | 0.776 | – | 0.829 | –
S. aureus DSM 20231 [3], first compound 1.562 µg/mL | 0.631 | 0.662 | – | 0.632 | –
S. aureus DSM 20231 [3], first compound 3.124 µg/mL | 0.491 | 0.541 | – | 0.514 | –
S. aureus Newman [4], first compound 0.781 µg/mL | 0.55 | 0.579 | – | 0.612 | –
S. aureus Newman [4], first compound 1.562 µg/mL | 0.463 | 0.495 | – | 0.516 | –
S. aureus Newman [4], first compound 3.124 µg/mL | 0.134 | 0.149 | – | 0.108 | –
S. pneumoniae D39V [2], first compound 1.25 µg/mL | – | – | 0.974 | – | 0.916
S. pneumoniae D39V [2], first compound 2.5 µg/mL | – | – | 0.982 | – | 0.89
S. pneumoniae D39V [2], first compound 5 µg/mL | – | – | 0.902 | – | 0.898

fitness, S. aureus DSM 20231 [3], one replicate
Details | first compound 0.781 µg/mL | first compound 1.562 µg/mL | first compound 3.124 µg/mL
partner 3.12 µg/mL | 0.828 | 0.733 | 0.611
partner 6.24 µg/mL | 0.707 | 0.488 | 0.329

Details | Bliss interaction score
B. subtilis 168 [5] | 0.0393
S. aureus DSM 20231 [7] | 0.047
S. aureus Newman [8] | -0.0684
S. pneumoniae D39V [6] | 0.116

C[C@@H]1O[C@@H]1P(=O)(O)O [Fosfomycin] + C[n+]1ccc(-c2cc[n+](C)cc2)cc1 [Paraquat]
fitness
Details | partner 1.25 µg/mL | partner 1.5 µg/mL | partner 2.5 µg/mL | partner 3 µg/mL | partner 5 µg/mL | partner 6 µg/mL
B. subtilis 168 [1], first compound 1.562 µg/mL | 0.681 | – | 0.673 | – | 0.567 | –
B. subtilis 168 [1], first compound 3.124 µg/mL | 0.529 | – | 0.598 | – | 0.519 | –
B. subtilis 168 [1], first compound 6.248 µg/mL | 0.381 | – | 0.386 | – | 0.3 | –
S. aureus DSM 20231 [3], first compound 0.781 µg/mL | 0.717 | – | 0.7 | – | 0.702 | –
S. aureus DSM 20231 [3], first compound 1.562 µg/mL | 0.593 | – | 0.551 | – | 0.585 | –
S. aureus DSM 20231 [3], first compound 3.124 µg/mL | 0.481 | – | 0.51 | – | 0.476 | –
S. aureus Newman [4], first compound 0.781 µg/mL | 0.542 | – | 0.546 | – | 0.574 | –
S. aureus Newman [4], first compound 1.562 µg/mL | 0.468 | – | 0.47 | – | 0.483 | –
S. aureus Newman [4], first compound 3.124 µg/mL | 0.0901 | – | 0.116 | – | 0.169 | –
S. pneumoniae D39V [2], first compound 1.25 µg/mL | – | 0.985 | – | 0.959 | – | 0.985
S. pneumoniae D39V [2], first compound 2.5 µg/mL | – | 0.974 | – | 0.973 | – | 0.97
S. pneumoniae D39V [2], first compound 5 µg/mL | – | 0.812 | – | 0.831 | – | 0.791

Details | Bliss interaction score
B. subtilis 168 [5] | -0.0619
S. aureus DSM 20231 [7] | -0.101
S. aureus Newman [8] | -0.12
S. pneumoniae D39V [6] | -0.0411

C[C@@H]1O[C@@H]1P(=O)(O)O [Fosfomycin] + Cc1cc(NS(=O)(=O)c2ccc(N)cc2)no1 [Sulfamethoxazol]
fitness, one replicate
Details | first compound 0.781 µg/mL | first compound 1.562 µg/mL | first compound 3.124 µg/mL | first compound 6.248 µg/mL
B. subtilis 168 [1], partner 0.5 µg/mL | – | 0.794 | 0.686 | 0.592
S. aureus Newman [4], partner 8 µg/mL | 0.782 | 0.733 | 0.519 | –

fitness
Details | partner 1 µg/mL | partner 2 µg/mL | partner 4 µg/mL
B. subtilis 168 [1], first compound 1.562 µg/mL | 0.652 | 0.673 | 0.679
B. subtilis 168 [1], first compound 3.124 µg/mL | 0.548 | 0.557 | 0.516
B. subtilis 168 [1], first compound 6.248 µg/mL | 0.489 | 0.378 | 0.379
S. aureus DSM 20231 [3], first compound 0.781 µg/mL | 0.709 | 0.696 | 0.678
S. aureus DSM 20231 [3], first compound 1.562 µg/mL | 0.547 | 0.581 | 0.581
S. aureus DSM 20231 [3], first compound 3.124 µg/mL | 0.49 | 0.503 | 0.509
S. aureus Newman [4], first compound 0.781 µg/mL | 0.627 | 0.705 | 0.71
S. aureus Newman [4], first compound 1.562 µg/mL | 0.513 | 0.572 | 0.496
S. aureus Newman [4], first compound 3.124 µg/mL | 0.211 | – | 0.141
S. pneumoniae D39V [2], first compound 1.25 µg/mL | 0.957 | 0.935 | 0.955
S. pneumoniae D39V [2], first compound 2.5 µg/mL | 0.918 | 0.925 | 0.943
S. pneumoniae D39V [2], first compound 5 µg/mL | 0.757 | 0.756 | 0.78

Details | Bliss interaction score
B. subtilis 168 [5] | -0.0756
S. aureus DSM 20231 [7] | -0.0688
S. aureus Newman [8] | 0.0933
S. pneumoniae D39V [6] | -0.0416
